Data published in patent US12351628B2, “Modified membrane spanning proteins and methods for the preparation and use thereof” (priority 2014, dated 2025).
In brackets after ≈: the same amount, converted by molar mass. Read-outs that look alike come from different tables or passages of the source.

System: E. coli strains (e.g. BL21 or DH10beta)
Assay: Growth of E. coli on LB medium with varying antibiotic concentrations (MIC), liquid and agar plates
Type: cell-based
Conditions: for Antibiotic concentration to which resistance is conferred: E. coli transformed with isolated mutated GPR55 clones; for MIC: Escherichia coli
Experimental: The construct library containing modified genes is then used to transform E. coli strains (e.g. BL21 or DH10beta). Growth is tested on LB medium with varying concentrations of kanamycin (MIC for untransformed cells is approximately 10 mg/L), both in liquid and agar plates.

[1] = E. coli containing a plasmid encoding wild type human GPR55
[2] = read-out: Apparent MIC, E. coli expressing certain constructs containing wild type rat NTSR1 (aa 43-424)

CC1(C)S[C@@H]2[C@H](NC(=O)C(C(=O)O)c3ccccc3)C(=O)N2[C@H]1C(=O)O (stereo partly shown) [carbenicillin]
Antibiotic concentration to which resistance is conferred: > 80 mg/L | MIC [1]: ~40 µg/mL (≈ 106 µM) | MIC [2]: > 75 µg/mL

NC[C@H]1O[C@H](O[C@H]2[C@H](O)[C@@H](O[C@H]3O[C@H](CO)[C@@H](O)[C@H](N)[C@H]3O)[C@H](N)C[C@@H]2N)[C@H](O)[C@@H](O)[C@@H]1O [kanamycin]
Antibiotic concentration to which resistance is conferred: > 50 mg/L | MIC [1]: ~25 µg/mL (≈ 51.6 µM) | MIC [2]: > 50 µg/mL | MIC (untransformed E. coli cells, LB medium): ~10 µg/mL (≈ 20.6 µM)
